Tested on: NF-κB mediated transcription
Assay: NF-κB driven β-lactamase reporter assay in ECV-304 NF-κB.βlaZ cells (AURORA CCF2 fluorescence)
Assay type: cell-based, human
Details: 10 μM compound; ECV-304 NF-κB.βlaZ cells stimulated with 10 ng/mL TNF-α or 100 pg/mL IL-1β, 6 hours at 37° C.; inhibition of maximum blue/green ratio
Excerpt: Introduction: Described below is an in vitro, cell-based, high throughput screening assay that reliably identifies inhibitors of NF-κB mediated transcription.
The assay takes advantage of AURORA (Aurora Bioscience Corporation, La Jolla, Calif.) fluorescence technology. Endothelial cell vein-304 (ECV-304) cells, an endothelial-like immortalized cell type, may be stably transfected with a plasmid vector containing the cDNA for the enzyme β-lactamase (under the control of a basal promoter, Stratagene pNFκB-luc vector) and 5 copies of an human immunodeficiency virus-1 (HIV-1) NF-κB binding site. ECV-304 cells are described by Takahashi K. et al. in Spontaneous Transformation and Immobilization of Human Endothelial Cells, In Vitro Cell. Dev. Biol. 1990;25:265-274. Activation of NF-κB in ECV-304 by cytokines such as TNF-α or interleuken-1 beta (IL-1β) results in the production of β-lactamase, which cleaves a green fluorescent substrate (excitation/emission wavelengths 395 nm1530 nm) to yield a blue fluorescent product (excitation/emission wavelengths 395 nm/460 nm). Visually, the uncleaved green fluorescent substrate is sequestered intracellularly and emits green fluorescence, while the cleaved product emits blue fluorescence. Fluorescence is quantitated spectrophotometrically, and the spectral intensity of blue fluorescence versus green fluorescence can be used to calculate the degree of activation of NF-κB.
The assay was performed as outlined here and described in detail below. ECV-304 cells permanently transfected with the NF-κB driven β-lactamase gene (ECV-304 NF-κB.βlaZ) were plated in clear-bottom, black 96-well plates (1.25×10^4 cells/well) in media-199 (M-199) media containing 2% fetal bovine serum (FBS). […] The AURORA fluorescent disclosing reagent was then added. After one additional hour, the plates were read in a fluorometer at the blue 395 nm/460 nm (excitation/emission) and green 395 nm/530 nm wavelengths. Then the blue/green emission ratio was calculated. […] An IC50 for said sulfonylaminocarbonyl derivative was determined from a dose-response curve. This assay was designed to be optionally run in either high or low throughput screening modes.
Five copies of the HIV-1 NF-κB binding site (5′-[…]-3′) along with a TATA box were inserted into the EcorRI/BamHI sites of plasmid pMCRBlaZ to create plasmid p5×KBBlaZ, which procedure is illustrated in Scheme 1 below. [formula]
Cells were selected for antibiotic resistance with Zeocin for approximately 2 weeks. After the stable population had been expanded to a significant number of cells, it was stimulated with IL-1β and stained with AURORA CCF2 dye, a membrane permeant, intracellularly-trapped, fluorescent substrate. Cells that fluoresced blue (indicating a positive response of the NF-κB/β-lactamase reporter to stimulation by IL-1β) in the stimulated/stained population were then sorted by flow cytometry into a pool. The pool was expanded and stained with CCF2, and then the cells that fluoresced green from this unstimulated population (indicating a low background of the NF-κB/β-lactamase reporter construct) were cloned by flow cytometry after adding 1 cell per well in 96-well plates. Clones were allowed to expand. Each cloned cell line was then examined for fold stimulation after stimulation with IL-1β using a CCF2 reporter assay, and these stimulated cells were compared to unstimulated cells.
Cells: ECV-304 NF-κB β-Lactamase clone 1E8
Inhibitors: Prepared stock solutions of aminosulfonyl derivatives at 10 mM concentration in DMSO;
c) Added 10 μL of B into appropriate well in assay plate (the final concentration of drug is 10 μM), and […]

Q: How did the “Percent Inhibition at 10 μM” value turn out when `CC(C)c1cccc(C(C)C)c1OC(=O)NS(=O)(=O)Nc1nc2ccccc2[nH]1` [Example 16, Carbamic acid, [(1H-benzimdazol-2-ylamino)sulfonyl]-, 2,6-bis(1-methylethyl)-phenyl ester] was run?
A: The value was <10%.

Q: Which “Percent Inhibition at 10 μM” value does the source give for `CC(C)c1cc(-c2cc(C(C)C)c(OC(=O)NS(=O)(=O)Oc3c(C(C)C)cccc3C(C)C)c(C(C)C)c2)cc(C(C)C)c1OC(=O)NS(=O)(=O)Oc1c(C(C)C)cccc1C(C)C` [Example 134, Carbamic acid, [[2,6-bis(1-methylethyl)phenoxy]sulfonyl]-, 3,3′,5,5′-tetrakis(1-methylethyl) [1,1′-biphenyl]-4,4′-diyl ester] here?
A: Its value is 18.39%.

Same assay, conditions: Homo sapiens, ECV-304, 6 h, 10 μM compound; ECV-304 NF-κB.βlaZ cells stimulated with 10 ng/mL TNF-α or 100 pg/mL IL-1β, 6 hours at 37° C.; inhibition of maximum blue/green ratio; read-out: Percent Inhibition at 10 μM

Q: How did the inhibition at 10 µM turn out when `CCCCCCCCCCCCCC(c1ccccc1)S(=O)(=O)NC(=O)Nc1c(C(C)C)cccc1C(C)C` (centres unmarked) [Example 245, N-[2,6-bis(1-methylethyl)phenyl]-N′-(1-phenyl-1-tetradecylsulfonyl)urea] was run?
A: The inhibition at 10 µM was 16.1%.

Q: `CCOC(=O)CCCCCc1cc(C(C)C)c(OS(=O)(=O)NC(=O)Cc2c(C(C)C)cc(C(C)C)cc2C(C)C)c(C(C)C)c1` [Example 188, 6-(3,5-Diisopropyl-4-{[(2,4,6-triisopropyl-phenyl)-acetyl]sulfamoyloxy}-phenyl)-hexanoic acid ethyl ester] was tested. Which inhibition at 10 µM did it give?
A: Its inhibition at 10 µM is 50.8%.

Q: Which inhibition at 10 µM does the source give for `CCCCN(CCCC)S(=O)(=O)N(C)C(=O)Nc1c(C(C)C)cccc1C(C)C` [Example 99, Urea, N′-[2,6-bis(1-methylethyl)phenyl]-N-[(dibutylamino)sulfonyl]-N-methyl-] here?
A: The inhibition at 10 µM was < 10%.

Q: `COc1cc(OC)c(CC(=O)NS(=O)(=O)Oc2c(C(C)C)cccc2C(C)C)c(OC)c1` [Example 147, [(2,4,6-Trimethoxy-phenyl)-acetyl]-sulfamic acid 2,6-diisopropyl-phenyl ester] was tested. Which inhibition at 10 µM did it give?
A: The inhibition at 10 µM was < 10%.

Q: With `CC(C)c1cccc(C(C)C)c1OS(=O)(=O)NC(=O)C(C)(c1ccccc1)c1ccccc1` [Example 171, (2,2-Diphenyl-propionyl)-sulfamic acid 2,6-diisopropyl-phenyl ester] as the compound, how does the inhibition at 10 µM read?
A: Its inhibition at 10 µM is 62.2%.

Q: `CC(C)c1cccc(C(C)C)c1NC(=O)NS(=O)(=O)N1CCCCC1` [Example 71, Urea, N-[2,6-bis(1-methylethyl)phenyl]-N′-(1-piperidinylsulfonyl)-] was tested. Which inhibition at 10 µM did it give?
A: Its inhibition at 10 µM is < 10%.

Q: `CSCC[C@H](N)C(=O)Nc1cc(C(C)C)c(OS(=O)(=O)NC(=O)Cc2c(C(C)C)cc(C(C)C)cc2C(C)C)c(C(C)C)c1` [Example 201, [2-(2,4,6-Triisopropyl-phenyl)-acetyl]-sulfamic acid 4-((S)-2-amino-4-methylsulfanyl-butyrylamino)-2,6-diisopropyl-phenyl ester] was tested. Which inhibition at 10 µM did it give?
A: The inhibition at 10 µM was 87.1%.

Q: How did the inhibition at 10 µM turn out when `CC(C)c1cc(C(C)C)c(CC(=O)NS(=O)(=O)Oc2c(C(C)C)cc(C=CC#N)cc2C(C)C)c(C(C)C)c1` [Example 224, [(2,4,6-Triisopropyl-phenyl)-acetyl]-sulfamic acid 4-(2-cyano-vinyl)-2,6-diisopropyl-phenyl ester] was run?
A: The inhibition at 10 µM was < 10%.

Q: `CCCCCCNS(=O)(=O)NC(=O)Nc1c(C(C)C)cccc1C(C)C` [Example 39, N-[2,6-bis(1-methylethyl)phenyl]-N′-[(hexylamino)sulfonyl]-urea] was tested. Which inhibition at 10 µM did it give?
A: The inhibition at 10 µM was < 10%.

Q: For `CC(C)c1cc(C(C)C)c(CC(=O)NS(=O)(=O)Oc2c(C(C)C)cc(CO)cc2C(C)C)c(C(C)C)c1` [Example 233, [(2,4,6-Triisopropyl-phenyl)-acetyl]-sulfamic acid 4-hydroxymethyl-2,6-diisopropyl-phenyl ester], which inhibition at 10 µM is on record?
A: Its inhibition at 10 µM is 76.9%.

Q: `CC(C)c1cccc(C(C)C)c1OS(=O)(=O)NC(=O)Cc1cccs1` [Example 148, (Thiophen-2-yl-acetyl)-sulfamic acid 2,6-diisopropyl-phenyl ester] was tested. Which inhibition at 10 µM did it give?
A: Its inhibition at 10 µM is < 10%.

Q: With `COC(=O)c1cc(C(C)C)c(OS(=O)(=O)NC(=O)Cc2c(C(C)C)cc(C(C)C)cc2C(C)C)c(C(C)C)c1` [Example 228, 3,5-Diisopropyl-4-{[(2,4,6-triisopropyl-phenyl)-acetyl]sulfamoyloxy}-benzoic acid methyl ester] as the compound, how does the inhibition at 10 µM read?
A: Its inhibition at 10 µM is 76.1%.

Q: With `CC(C)c1cccc(C(C)C)c1OS(=O)(=O)NC(=O)C1c2ccccc2Oc2ccccc21` [Example 173, (9H-Xanthene-9-carbonyl)-sulfamic acid 2,6-diisopropyl-phenyl ester] as the compound, how does the inhibition at 10 µM read?
A: Its inhibition at 10 µM is 36.9%.

Q: `CC(=O)c1ccc(OS(=O)(=O)NC(=O)Cc2c(C(C)C)cc(C(C)C)cc2C(C)C)c(C(C)C)c1` [Example 191, [(2,4,6-Triisopropyl-phenyl)-acetyl]-sulfamic acid 4-acetyl-2-isopropyl-phenyl ester] was tested. Which inhibition at 10 µM did it give?
A: The inhibition at 10 µM was 55.7%.

Same assay, conditions: Homo sapiens; 10 μM compound; ECV-304 NF-κB.βlaZ cells stimulated with 10 ng/mL TNF-α or 100 pg/mL IL-1β, 6 hours at 37° C.; inhibition of maximum blue/green ratio; read-out: Percent Inhibition at 10 μM

Q: For `CC(C)c1cccc(C(C)C)c1OC(=O)NS(=O)(=O)Oc1ccccc1` [Example 97, Carbamic acid, (phenoxysulfonyl)-, 2,6-bis(1-methylethyl)phenyl ester], which inhibition at 10 µM is on record?
A: The inhibition at 10 µM was < 10%.

Q: Which inhibition at 10 µM does the source give for `COc1cc(C(C)C)c(OC(=O)NS(=O)(=O)Oc2c(C(C)C)cccc2C(C)C)c(C(C)C)c1` [Example 123, Carbamic acid, [[2,6-bis(1-methylethyl)phenoxy]sulfonyl]-, 4-methoxy-2,6-bis(1-methylethyl)phenyl ester] here?
A: Its inhibition at 10 µM is < 10%.

Q: For `CC(=O)c1cc(C(C)C)c(OC(=O)NS(=O)(=O)Oc2c(C(C)C)cccc2C(C)C)c(C(C)C)c1` [Example 183, Carbamic acid, [[2,6-bis(1-methylethyl)phenoxy]sulfonyl]-, 4-acetyl-2,6-bis(1-methylethyl)phenyl ester], which inhibition at 10 µM is on record?
A: The inhibition at 10 µM was < 10%.

Q: How did the inhibition at 10 µM turn out when `CC(C)(C)c1cccc(C(C)(C)C)c1OC(=O)NS(=O)(=O)NC(c1ccccc1)c1ccccc1` [Example 2, Carbamic acid, [[(diphenylmethyl)amino]sulfonyl]-, 2,6-bis(1,1-dimethylethyl)phenyl ester] was run?
A: The inhibition at 10 µM was 37.2%.

Q: Which inhibition at 10 µM does the source give for `COc1cc(C(C)(C)C)c(OC(=O)NS(=O)(=O)Oc2c(C(C)C)cccc2C(C)C)c(C(C)(C)C)c1` [Example 115, Carbamic acid, [[2,6-bis(1-methylethyl)phenoxy]sulfonyl]-, 2,6-bis(1,1-dimethylethyl)-4-methoxyphenyl ester] here?
A: Its inhibition at 10 µM is 39%.

Q: For `CC(C)c1cc(O)cc(C(C)C)c1OC(=O)NS(=O)(=O)Oc1c(C(C)C)cccc1C(C)C` [Example 132, Carbamic acid, [[2,6-bis(1-methylethyl)phenoxy]sulfonyl]-, 4-hydroxy-2,6-bis(1-methylethyl)phenyl ester], which inhibition at 10 µM is on record?
A: Its inhibition at 10 µM is < 10%.

Q: Which inhibition at 10 µM does the source give for `CC(C)c1cccc(C(C)C)c1OS(=O)(=O)NC(=O)Oc1c(F)cccc1F` [Example 153, Carbamic acid, [[2,6-bis(1-methylethyl)phenoxy]sulfonyl]-, 2,6-difluorophenyl ester] here?
A: The inhibition at 10 µM was < 10%.

Q: With `CC(C)c1cccc(C(C)C)c1OS(=O)(=O)NC(=O)Oc1c(-c2ccccc2)cccc1-c1ccccc1` [Example 114, Carbamic acid, [[2,6-bis(1-methylethyl)phenoxy]sulfonyl]-, [1,1′:3′,1″-terphenyl]-2′-yl ester] as the compound, how does the inhibition at 10 µM read?
A: Its inhibition at 10 µM is < 10%.

Q: For `CC(C)c1cccc(C(C)C)c1OC(=O)NS(=O)(=O)N(C(C)C)C1CCCCC1` [Example 86, Carbamic acid, [[cyclohexyl(1-methylethyl)amino]sulfonyl]-, 2,6-bis(1-methylethyl)phenyl ester], which inhibition at 10 µM is on record?
A: The inhibition at 10 µM was 16%.

Q: `Cc1cc(C(C)(C)C)c(OC(=O)NS(=O)(=O)Oc2ccccc2)c(C(C)(C)C)c1` [Example 48, Carbamic acid, (phenoxysulfonyl)-, 2,6-bis(1,1-dimethylethyl)-4-methylphenyl ester] was tested. Which inhibition at 10 µM did it give?
A: The inhibition at 10 µM was 13.8%.
